Experimental data: patent US20240043615A1, “AMINO ACID POLYMER-PLATINUM ANTICANCER DRUG CONJUGATES” (priority 2020, published 2024)
Entries after “also recorded” stand apart in the source; their conditions may differ.

How the values were obtained:
[1] = test system: A2780 cisplatin-resistant cells (A2780-Cis); experiment: Cytotoxicity in cisplatin-resistant A2780 cells; type: cell-based, human; conditions: different concentrations of Pt, 30 min
Description: (§1) A2780 cisplatin-resistant cells (A2780-Cis) and multiple drug resistant MDA-MB-231 cells (MDA-MB-231/MDR) were employed as models of drug resistant cells. 5×10^3 A2780-Cis or MDA-MB-231/MDR cells/well were seeded in a 96-well plate and cultured overnight. […] The results of this study are found in FIGS. 8A and 8B.

[2] = test system: multiple drug resistant MDA-MB-231 cells (MDA-MB-231/MDR); experiment: Cytotoxicity in multiple drug resistant MDA-MB-231 cells; type: cell-based, human; conditions: different concentrations of Pt, 30 min
Description: as §1

CT26 cells [3] = experiment: LysoTracker flow cytometry (lysosomal rupture); type: cell-based, mouse; conditions: treatment 1 h; LysoTracker deep red 100 nM 40 min
Description: CT26 cells were seeded in a 6-well plate and cultured overnight. […] Cells were then stained with LysoTracker deep red (100 nM) for 40 min. Cells were analyzed by flow cytometry.

[4] = Plasma pharmacokinetics in tumor-free mice (Pt by ICP-OES); conditions: 4 mg (Pt)/kg Pt-equivalent dosage
Description: The dosage was calculated based on Pt. Plasma samples were collected at different time points. Pt content was measured by ICP-OES.

[5] = test system: A2780 cisplatin-resistant tumor; conditions: i.v.; control 5% glucose
[6] = Spleen toxicity evaluation in mice; conditions: mice after treatment
CT26 tumor [7] = experiment: Anti-tumor efficacy, CT26 tumor-bearing mice; type: in vivo; conditions: i.v.
CT26 cells [8] = conditions: for cell viability of CT26 cells with respect to incubation time: 25 μg Pt/mL, different time points, CCK8; for cell viability of CT26 cells: varying platinum concentration, 30 min
Description: 5×10^3 CT26 cells/well were seeded in a 96-well plate and cultured overnight. […] Cell viability was detected by CCK8 assay. The concentration of each of the platinum derivatives was calculated based on platinum concentration.
(§2) CT26, A2780 or MDA-MB-231 cells were seeded in a 96-well plate and cultured overnight.
The concentration of each of the platinum derivatives was calculated based on platinum concentration.

A2780 tumor = experiment: Anti-tumor efficacy, A2780 tumor-bearing mice; type: in vivo; conditions: i.v.
[9] = Body weight change in mice; conditions: single 8 mg (Pt)/kg injection
CT26 tumor [10] = conditions: CT26-tumor bearing mice, i.v., same dosage of oxaliplatin and P(G-A)-Asp-Pt
[11] = test system: A2780 human ovarian cancer cells; experiment: Cytotoxicity in A2780 cells; type: cell-based; conditions: varying platinum concentration, 30 min
Description: as §2

CT26 cells [12] = experiment: Annexin-V/propidium iodide flow cytometry (apoptosis/necrosis); type: cell-based, mouse; conditions: 15 μg (Pt)/mL, different times
Description: CT26 cells were seeded in a 6-well plate and cultured overnight. […] Apoptosis: Annexin V^+ PI^−, Necrosis: PI^+.

[13] = test system: MDA-MB-231 human breast cancer cells; experiment: Cytotoxicity in MDA-MB-231 cells; type: cell-based; conditions: varying platinum concentration, 30 min
Description: as §2

CT26 cells [14] = conditions: short-time treatment
CT26 cells [15] = conditions: dynasore, chlorpromazine, genistein, cytochalasin D 40 min, then 25 μg (Pt)/mL for 30 min
[16] = same Pt dosage of oxaliplatin and P(G-A)-Asp-Pt, control 5% glucose

Compound | cell viability of A2780-Cis cells [1] | cell viability of MDA-MB-231/MDR cells [2] | LysoTracker signal (MFI) in CT26 cells (CT26 cells [3]) | A2780-Cis tumor growth [5] | CT26 tumor growth (CT26 tumor [7]; [16]) | cell viability of CT26 cells with respect to incubation time (CT26 cells [8]) | cell viability of CT26 cells (CT26 cells [8]) | A2780 tumor growth (A2780 tumor; [16]) | cell viability of A2780 cells [11] | cell viability of MDA-MB-231 cells [13] | also measured
N.N.[Cl][Pt][Cl] [cisplatin] | little effect | little effect | – | – | – | – | – | – | – | – | –
O=C1[O][Pt]2([NH][C@@H]3CCCC[C@H]3[NH]2)[O]C1=O [oxaliplatin, reference compound] | little effect | little effect | little effect | partial anti-tumor efficacy on A2780-Cis tumors | partially slowed CT26 and A2780 tumor growth | little effect within that time interval | little effect | partially slowed CT26 and A2780 tumor growth | little effect | little effect | Pt concentration in plasma versus time (circulation time) [4]: quickly cleared from plasma; spleen appearance and weight [6]: dramatically shrunken with decreased weight; body weight decrease [9]: more than 15%; Pt concentration in tumors versus time (CT26 tumor [10]): rapidly dropped over time; apoptosis (Annexin V+ PI−) of CT26 cells (CT26 cells [12]): induced cell apoptosis gradually from 0.5 h to 18 h
Poly L-Glutamic and poly L-Aspartic acid (Glu:Asp = 7:3)-L-Aspartic-Platinum [P(G-A)-Asp-Pt] | able to kill these drug resistant cells in 30 min | able to kill these drug resistant cells in 30 min | reduced LysoTracker signal | significantly prohibited A2780-Cis tumor growth | significantly inhibited tumor growth compared to the same oxaliplatin dosage | induce rapid cell death in as short as 30 min | able to kill these cancer cells; also recorded: best cytotoxicity to CT26 cells compared to the other platinum derivatives tested; also recorded: better efficacy that P(G-A)-Glu-Pt and P(G-A)-D-Asp-Pt | significantly inhibited tumor growth compared to the same oxaliplatin dosage | able to kill these cancer cells | able to kill these cancer cells | CT26 tumor growth (CT26 tumor [7]; high dose): completely inhibited the growth; mice with complete response, CT26 tumors (CT26 tumor [7]; high dose): over 40%; IC50 in CT26 cells in different incubation times (CT26 cells [8]; 24 and 48 h, compared with oxaliplatin): lower IC50; A2780 tumor growth (A2780 tumor; high dose): completely inhibited the growth; mice with complete response, A2780 tumors (A2780 tumor; high dose): over 40%; morphological changes in CT26 cells (CT26 cells [14]): Obvious cancer cell swelling and disrupted plasma membrane; necrosis (PI+) of CT26 cells (CT26 cells [12]): triggered cancer cell necrosis quickly in 30 min; viability of CT26 cells pre-treated with endocytosis/micropinocytosis inhibitors (CT26 cells [15]): partially restore cell viability
Poly L-Glutamic and poly L-Aspartic acid (Glu:Asp = 7:3)-Platinum [P(G-A)-Pt] | – | – | – | – | – | – | best cytotoxicity to CT26 cells compared to the other platinum derivatives tested | – | – | – | –
